Test results taken from patent publication US20240423972A1, “CHEMOTHERAPEUTIC BIOADHESIVE PARTICLES WITH IMMUNOSTIMULATORY MOLECULES FOR CANCER TREATMENT” (priority 2021, published 2024).

How the values were obtained:
PDVC57 cells = experiment: Control cytotoxicity assay: solutions not aspirated before addition of cells; assay type: cell-based, murine
Description: After 48 hours, cell viability was assessed using Cell-Titer Glo. (8D) PDVC7 cells were harvested and seeded on a 96-well plate (5000 cells/well). […] FIG. 8B is a control for assay (8A) in which there is no poly-l-lysine attached to the plate.
A simulated, protein-rich tumor matrix was created by coating a 96 wellplate with 0.01% poly-l-lysine in 1×PBS. […] […] After 48 hours, cell viability was assessed using Cell-Titer Glo. PDVC7 cells were harvested and seeded on a 96-well plate (5000 cells/well). […] After 48 hours, cell viability was assessed using Cell-Titer Glo. A control for assay in which the poly-l-lysine coated plates are incubated with blank (unloaded) NP, free CPT, NNP-CPT or BNP-CPT, but these solutions are not aspirated before the addition of PDVC57 cells.

PDVC57 tumors [1] = experiment: Intratumoral CPT retention (CPT recovered from tumors); assay type: in vivo, C57BL/6J mice; conditions: 240 h (10 days) after intratumoral injection, 0.25 mg CPT
Description: (§1) All animal procedures were conducted in accordance with Yale Institutional Animal Care and Use Committee guidelines. Mice were housed in the Yale Animal Resource Center and afforded free access to food and water. Wild-type C57BL/6J mice were obtained from The Jackson Laboratory. To prepare the animals for tumor transplantation, the dorsal right flank was shaved using electric clippers. PDVC57 cells were harvested, washed, and resuspended in 1×PBS on ice at a concentration of 5.0×10^7 cells per mL. Mice were then anesthetized in an induction chamber with […] in propylene glycol and the dorsal right flank injected intradermally/subcutaneously with 5.0×10^6 cells in 100 μl using a 27-gauge syringe, forming a small bleb at the site of injection.
When tumors reached a diameter of about 5 mm, they were treated with either free CPT (0.25 mg of CPT/50 μL of intralipid), NNP-CPT (0.25 mg of CPT/50 μL of PBS), or BNP-CPT (0.25 mg of CPT/50 μL of PBS). Following injection, tumors were harvested and lyophilized at 0, 48, and 240 h. […] The homogenate was centrifuged at 10,000×g for 5 min to pellet residual tumor and debris, the supernatant removed, and CPT quantified using its intrinsic fluorescence as described above.

PDVC57 tumors [2] = experiment: In vivo assessment of CPT NP efficacy; conditions: single dose of 0.25 mg of CPT by intratumoral injection
Description: as §1
PDVC57 tumors were induced as described above. When tumors attained a diameter of approximately 5 mm, they were injected with either blank BNPs (1.99 mg/50 μL of PBS), IL-CPT (0.25 mg of CPT/50 μL), NNP-CPT (0.25 mg of CPT/50 μL of PBS), or BNP-CPT (0.25 mg of CPT/50 μL of PBS) using a 27-gauge needle, which was positioned in the center of the tumor. The entire treatment volume was administered intratumorally over 15 s. The needle was then held in this position for 10 s and withdrawn slowly in order to prevent leakage of drug from the injection site.

For `CC[C@@]1(O)C(=O)OCc2c1cc1n(c2=O)Cc2cc3ccccc3nc2-1` [free CPT, Camptothecin], the “Killing of PDVC57 (viability)” value (PDVC57 cells) was “comparable killing”, the “percentage of the injected CPT recovered from tumors” value (PDVC57 tumors [1]) was “undetectable” and the “Systemic toxicity in pilot studies” value (PDVC57 tumors [2]) was “without clinical evidence of systemic toxicity”.
